Source: US20070202206A1, “Morinda Citrifolia Leaf Juice And Leaf Extract Based Formulations” (priority 2005, published 2007)

Columns and labels:
[1] = test system: Propionibacterium acnes (ATCC 6919); assay: Microbial in vitro assay, Propionibacterium acnes; format: cell-based; conditions: Microbial In Vitro Assays, Anaerobes
[2] = test system: human epidermoid carcinoma cell line-A431; assay: cells; format: cell-based; conditions: for Percent Grown: A431, 72-hour exposure
Protocol: In this example, assays were performed to detect changes in cell proliferation based on the ability of viable cells to cause alamarBlue to change from non-fluorescent blue to a reduced, fluorescent red form. With the results obtained from the alamarBlue reaction, cell proliferation can be quantified and metabolic activity of viable cells can be examined. Test compounds including Morinda citrifolia leaf extract, leaf juice, and roast leaf were tested for their effects on […]
Morinda citrifolia leaf extract, leaf juice, and roast leaf were provided by Tahitian Noni International, Inc. for in vitro anti-tumor studies. The Morinda citrifolia compounds were dissolved in sterile distilled water and then diluted with sterile distilled water to obtain initial working solutions of 10000, 1000, 100, 10, and 1 μg/ml for the leaf extract and roast leaf, as well as 100, 10, 1, 0.1 and 0.01% for the leaf juice.
The tumor cell line, A431 (human epidermoid carcinoma), obtained from American Type Culture Collection (ATCC CRL-1555), was incubated in an air atmosphere of 5% CO2 at 37° C. The culture medium was used with Dulbecco's Modified Eagle's medium, 90%; Fetal Bovine Serum, 10% and supplemented with 1% Antibiotic-Antimycotic.
The anti-proliferation for the test substances was evaluated. Aliquots of 100 μl of cell suspension (about 3×10^3/well) were placed in 96-well microtiter plates in an atmosphere of 5% CO2 at 37° C. […] At the end of incubation, 20 μl of 90% alamarBlue reagent was added to each well for another 6-hour incubation before detection of cell viability by fluorescent intensity. Fluorescent intensity was measured using a Spectrafluor Plus plate reader with excitation at 530 nm and demission at 590 nm.
IC50, TGI, and LC50 values were then determined. […] TGI (Total Growth Inhibition) is the test compound concentration where the number or mass of treated cells at the end of the experiment was equal to that at time0. […] The measured results were calculated by the following formula: PG(%)=100×(Mean Ftest−Mean Ftime0)/(Mean Fctrl−Mean Ftime0)
If (Mean Ftest−Mean Ftime0)<0, then PG(%)−100×(Mean Ftest−Mean Ftime0)/(Mean Ftime0−Mean Fblank)
Where: • PG=percent growth • Mean Ftime0=The average of 2 measured fluorescent intensities of reduced alamarBlue at the time just before exposure of cells to the test substance. • Mean Ftest=The average of 2 measured fluorescent intensities of alamarBlue after 72-hour exposure of cells to the test substance. • Mean Fctrl, =The average of 2 measured fluorescent intensities of alamarBlue after 72-hour incubation without the test substance. • Mean Fblank=The average of 2 measured fluorescent intensities of alamarBlue in medium without cells after 72-hour incubation.
A decrease of 50% or more (≧50%) in fluorescent intensity relative to the vehicle-treated control indicated significant cell growth inhibition, cytostatic or cytotoxic activity, and a semi-quantitative IC50, TGI, and LC50 were then determined by nonlinear regression using GraphPad Prism (GraphPad Software, USA).

| Compound | Reference Compound Data, Concurrent [1] [µg/mL] | Percent Grown ([2]; concentration 0.001 μM) [%] | Percent Grown ([2]; concentration 0.01 μM) [%] | Percent Grown ([2]; concentration 0.1 μM) [%] | Percent Grown ([2]; concentration 1 μM) [%] | Percent Grown ([2]; concentration 10 μM) [%] | IC50 ([2]; Homo sapiens, A-431, Tumor, Skin (A431), semi-quantitative, nonlinear regression, read-out: IC50 (50% Inhibition Concentration)) [nM] | TGI (Total Growth Inhibition) ([2]; Tumor, Skin (A431), semi-quantitative, nonlinear regression) [nM] |
| --- | --- | --- | --- | --- | --- | --- | --- | --- |
| CC1(C)S[C@@H]2[C@H](NC(=O)[C@H](N)c3ccccc3)C(=O)N2[C@H]1C(=O)O [Ampicillin] | 0.1 | – | – | – | – | – | – | – |
| CO[C@@]12[C@H](COC(N)=O)C3=C(C(=O)C(C)=C(N)C3=O)N1C[C@@H]1N[C@@H]12 [Mitomycin] | – | 101 | 82 | 7 | 35 | 97 | 35 | 190 |
